Measured values reported in patent publication US12370143B2, “Compound or salt thereof and lipid particles” (FUJIFILM Corporation, priority 2018, dated 2025).

Experiments:
[1] = Encapsulation rate of siRNA in nucleic acid lipid particles (Luc2-siRNA); assay type: physicochemical; conditions: compound/DSPC/cholesterol/DMG-PEG2000 50/10/38.5/1.5
Procedure, shortened: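 Encapsulation rate was calculated as (total − outer-phase siRNA)/total ×100. Total siRNA was quantified spectrophotometrically after lipid-dissolving ethanol precipitation, and unencapsulated siRNA by RiboGreen in TE (ex 485/em 535 nm). The particles were test lipid/DSPC/cholesterol/DMG-PEG2000 at 50/10/38.5/1.5, formed by microfluidic mixing with Luc2-siRNA at pH 4 and dialyzed against PBS.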

[2] = Particle size of nucleic acid lipid particles (FVII-siRNA); assay type: physicochemical
Protocol: The compounds described in Table 2, L-α-distearoylphosphatidylcholine (trade name: COATSOME® MC-8080; NOF corporation), cholesterol (trade name: Choesterol HP; NIPPON FINE CHEMICAL CO., LTD.), and 1,2-dimyristoyl-rac-glycero-3-(methylpolyoxyethylene 2000) (hereinafter, called DMG-PEG2000) (trade name: SUNBRIGHT® GM-020; NOF corporation) were dissolved in ethanol at a molar ratio of 50/10/38.5/1.5 such that the total lipid concentration became 20 mmol/L, thereby obtaining an oil phase.
An aqueous nucleic acid solution obtained by dissolving 5 mg of Luc2-siRNA having the sequence described in Biomacromolecules (2013) 14, p. 3905 in 1 mL of sterile water was diluted with 10 mmol/L acetate buffer having a pH 4 such that the nucleic acid concentration became 19.7 μmol/L, thereby obtaining a water phase. Then, the water phase and the oil phase were mixed together by a micromixer (see JP5288254B) using a syringe pump such that the volume ratio of water phase:oil phase became 3:1 (final ratio of siRNA/lipid=339 (mol/mol)), and the mixed solution was diluted 2× with PBS, thereby obtaining a dispersion liquid of nucleic acid lipid particles. The dispersion liquid was dialyzed (Slide-A-Lyzer G2, MWCO: 10 kD, Thermo Fisher Scientific) using a phosphate buffered saline such that ethanol was removed, thereby obtaining nucleic acid lipid particles.
The particle size of the nucleic acid lipid particles was measured by the same method as that in <Preparation of lipid particles>.
(§1) The Factor VII (FVII) protein was measured according to the method described in Nature Biotechnology (2010) 28, 172-176. C57BL6/J mice were randomly grouped (n=3). A dispersion liquid of nucleic acid lipid particles was prepared by the same method as that in <Preparation of nucleic acid lipid particles>, except that FVII-siRNA having the sequence described in Molecular Therapy (2009) 17, p. 878 was used instead of Luc-siRNA. The dispersion liquid was administered to the caudal vein of the mice at a dosage of 0.1 mg/kg. For comparison, PBS at the same volume was administered to the caudal vein of the mice. Twenty four hours after the administration, blood was collected from the caudal vena cava, thereby obtaining plasma. The amount of FVII protein was quantified using the obtained plasma and a Biophen FVII assay kit (Aniara).

[3] = test system: DMS273 cells constantly expressing Luc; experiment: Target reporter protein (Luc) knockdown in cell, reporter protein assay; assay type: cell-based; conditions: Homo sapiens, DMS-273; Luc2-siRNA lipid particles using the compound; siRNA 0.1 to 100 nmol/L; concentration at which Luc expression is knocked down to 50%; read-out: IC50
Procedure, shortened: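 Nucleic acid lipid particles added at final 0.1 to 100 nmol/L to DMS273 human SCLC cells stably expressing Luc2, 24 hr exposure then 24 hr further culture after medium change. Luc quantified by Steady Glo luminescence after viable cell count; knockdown efficiency calculated and IC50 taken as concentration giving 50% Luc reduction.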

[4] = test system: Factor VII (FVII) protein; experiment: Measurement of Factor VII (FVII) protein in mouse plasma after FVII-siRNA lipid particles; assay type: in vivo, C57BL6/J mice; conditions: 0.1 mg/kg caudal vein, plasma 24 hours after administration, PBS group = 100%
Protocol: as §1
The FVII amount in the plasma sample of each individual in the PBS administration group was regarded as 100%, and the ratio of the FVII amount in the plasma sample of each individual to 100% was adopted as a measurement value.

[5] = Nucleic acid encapsulation rate of nucleic acid lipid particles (FVII-siRNA); assay type: physicochemical
Protocol: A 3 mol/L aqueous sodium acetate solution (30 μL) and 9 μL of glycogen were added to 60 μL of the lipid particles retaining nucleic acids, and then 1.5 mL of ethanol was added thereto such that only the nucleic acids were precipitated while the lipid was dissolved. Then, the supernatant was removed by centrifugation. After the precipitates were air-dried for 15 minutes or longer, water was added thereto such that the precipitates were redissolved, and the concentration thereof was measured using Nanodrop NF1000 (Thermo Fisher Scientific), thereby quantifying the total nucleic acid concentration.
The nucleic acid concentration was quantified using a Quant-iT RiboGreen RNA Assay Kit (Thermo Fisher Scientific) according to the protocol. First, a 20×TE buffer included in the above kit was diluted with water, thereby obtaining a 1×TE buffer. TE represents Tris/EDTA (ethylenediaminetetraacetic acid). In order to quantify only the nucleic acid in the outer water phase, the dispersion liquid of lipid particles retaining nucleic acids was diluted 10,000× with the 1×TE buffer.
The 10,000× diluted dispersion liquid of lipid particles (100 μL) was put in a 96-well plate, then 100 μL of a RiboGreen reagent (reagent included in the Quanti-iT Ribogreen RNA Assay Kit described above) diluted 2000× with the 1×TE buffer was added to a sample, and fluorescence (excitation wavelength: 485 nm, fluorescence wavelength: 535 nm) was measured using a plate reader Infinit EF200 (TECAN), thereby quantifying the nucleic acid concentration in the outer water phase.
By using the total nucleic acid concentration obtained through the above steps and the quantified nucleic acid concentration in the outer water phase, the nucleic acid encapsulation rate of the nucleic acid lipid particles was calculated according to the following Equation. Nucleic acid encapsulation rate (%)=(total nucleic acid concentration−nucleic acid concentration in outer water phase)/total nucleic acid concentration×100 The results are shown in Table 2.
as §1

[6] = Particle size of nucleic acid lipid particles (Luc2-siRNA); assay type: physicochemical; conditions: compound/DSPC/cholesterol/DMG-PEG2000 50/10/38.5/1.5
Procedure, shortened: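 Lipid particles formed from oil phase (test lipid/DSPC/cholesterol/DMG-PEG2000, 50/10/38.5/1.5 molar, 20 mmol/L total in ethanol) micromixed 1:3 with Luc2-siRNA in pH 4 acetate buffer (19.7 μmol/L); siRNA/lipid 339 mol/mol, PBS-diluted and dialyzed. Size measured on ELS-Z2 dynamic light scattering.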

Row | SMILES | Nucleic acid encapsulation rate [1] | Particle size (nm) [2] | IC50 [3] | Relative amount of FVII protein (%) [4] | Nucleic acid encapsulation rate [5] | Particle size (nm) [6]
1 | CCCCCCCC/C=C\CCCCCCCC(=O)OCCN(CCOC(=O)OC(CCCCCC)CCCCCCCCC(=O)OCC(CCCCCC)CCCCCCCC)CCN(CC)CC (stereo not shown) [Example 118, 2-Hexyldecyl 3-ethyl-12-hexyl-6-(2-(oleoyloxy)ethyl)-10-oxo-9,11-dioxa-3,6-diazahenicosan-21-oate] | 90% | 80.5 nm | 35 nM | 9% | 64% | 93.6 nm
2 | CCCCCCC(=O)OCCN(CCOC(=O)OC(CCCCCC)CCCCCCCCC(=O)OCC(CCCC)CCCCCC)CCN(CC)CC (stereo not shown) [Example 104, 2-Butyloctyl 3-ethyl-6-(2-(heptanoyloxy)ethyl)-12-hexyl-10-oxo-9,11-dioxa-3,6-diazahenicosan-21-oate] | 81% | 85.8 nm | 4 nM | 1% | 69% | 76.6 nm
3 | CCCCCCCCCCCC(=O)OCCN(CCOC(=O)OC(CCCCCC)CCCC(=O)OCC(CCCC)CCCCCC)CCN(CC)CC (stereo not shown) [Example 106, 2-Butyloctyl 6-(2-(dodecanoyloxy)ethyl)-3-ethyl-12-hexyl-10-oxo-9,11-dioxa-3,6-diazahexadecan-16-oate] | 80% | 66.4 nm | 37 nM | 2% | 85% | 62.4 nm
4 | CCCCCCCC(=O)OCCN(CCOC(=O)OC(CCCCCC)CCCCCCCCC(=O)OCC(CCCCC)CCCCC)CCN(CC)CC (stereo not shown) [Example 129, 2-Pentylheptyl 3-ethyl-12-hexyl-6-(2-(octanoyloxy)ethyl)-10-oxo-9,11-dioxa-3,6-diazahenicosan-21-oate] | 63% | 76.4 nm | 41 nM | 4% | 58% | 70.2 nm
5 | CCCCCCCCCCCCC(CCCCCCCCC(=O)OCC(CCCC)CCCCCC)OC(=O)OCCN(CCN(CC)CC)C(C)C (stereo not shown) [Example 61, 2-Butyloctyl 12-dodecyl-3-ethyl-6-isopropyl-10-oxo-9,11-dioxa-3,6-diazahenicosan-21-oate] | 75% | 67.7 nm | 7 nM | 8% | 78% | 60.9 nm
6 | CCCCCCCOC(=O)CCN(CCOC(=O)OC(CCCCCC)CCCCCCCCC(=O)OCC(CCCC)CCCCCC)CCN(CC)CC (stereo not shown) [Example 122, 2-Butyloctyl 3-ethyl-6-(3-(heptyloxy)-3-oxopropyl)-12-hexyl-10-oxo-9,11-dioxa-3,6-diazahenicosan-21-oate] | 83% | 80.7 nm | 19 nM | 3% | 84% | 69.5 nm
7 | CCCCCCC(CCCC)COC(=O)CCCCCCCCC(CCCCCC)OC(=O)OCCN(CCOC(=O)CCCCC)CCN(CC)CC (stereo not shown) [Example 105, 2-Butyloctyl 3-ethyl-6-(2-(hexanoyloxy)ethyl)-12-hexyl-10-oxo-9,11-dioxa-3,6-diazahenicosan-21-oate] | 81% | 102.4 nm | 28 nM | 7% | 73% | 100 nm
8 | CCCCCCCC(=O)OCCN(CCOC(=O)OC(CCCCCC)CCCCCCCCC(=O)OCCC(CCCCC)CCCCC)CCN(CC)CC (stereo not shown) [Example 125, 3-Pentyloctyl 3-ethyl-12-hexyl-6-(2-(octanoyloxy)ethyl)-10-oxo-9,11-dioxa-3,6-diazahenicosan-21-oate] | 76% | 77.8 nm |  | 5% | 80% | 73.8 nm
9 | CCCCC/C=C\C/C=C\CCCCCCCCC(CCCCCCCC/C=C\C/C=C\CCCCC)OC(=O)OCCN(CCCC)CCN(C)C [Example 38, 2-(Butyl(2-(dimethylamino)ethyl)amino)ethyl((6Z,9Z,28Z,31Z)-heptatriaconta-6,9,28,31-tetraen-19-yl)carbonate] | 87% | 67.9 nm |  | 16% | 100% | 94.2 nm
10 | CCCCC/C=C\C/C=C\CCCCCCCCC(CCCCCCCC/C=C\C/C=C\CCCCC)OC(=O)OCCCN(C)C [Comparative Example 8, 3-(Dimethylamino)propyl((6Z,9Z,28Z,31Z)-heptatriaconta-6,9,28,31-tetraen-19-yl)carbonate, reference compound] | 59% | 63.4 nm |  | 58% | 78% | 63.1 nm
11 | CCCCC/C=C\C/C=C\CCCCCCCCC(CCCCCCCC/C=C\C/C=C\CCCCC)OC(=O)OCCN(CCCCCC)CCN(C)C [Example 37, 2-((2-(Dimethylamino)ethyl)(hexyl)amino)ethyl((6Z,9Z,28Z,31Z)-heptatriaconta-6,9,28,31-tetraen-19-yl)carbonate] | 85% | 74.5 nm |  | 17% | 100% | 80.4 nm
12 | CCCCCCCCC(CCCCCC)COC(=O)CCCC(CCCCCC)OC(=O)OCCN(CCN(CC)CC)C(C)C (stereo not shown) [Example 83, 2-Hexyldecyl 3-ethyl-12-hexyl-6-isopropyl-10-oxo-9,11-dioxa-3,6-diazahexadecan-16-oate] | 82% | 85.4 nm |  | 13% | 88% | 83.6 nm
